# Measured values from ChEMBL document CHEMBL5303573, “Mapping human microbiome drug metabolism by gut bacteria and their genes” (Nature, 2019).
# Columns and labels:
# [1] = The drug is tested on Bacteroides cellulosilyticus strain: DSM14838 for biotransformation. The drug concentrations were measured before and after a 12-h incubation by liquid-chromatography-coupled mass spectrometry (LC–MS); settings: 2 µM
# [2] = segatella copri, 12 h, 2 µM
# Description: The drug is tested on Prevotella copri strain: DSM18205 for biotransformation. The drug concentrations were measured before and after a 12-h incubation by liquid-chromatography-coupled mass spectrometry (LC–MS)
# [3] = The drug is tested on Bacteroides xylanisolvens strain: DSM18836 for biotransformation. The drug concentrations were measured before and after a 12-h incubation by liquid-chromatography-coupled mass spectrometry (LC–MS); settings: 2 µM
# [4] = anaerostipes sp., 12 h, 2 µM
# Description: The drug is tested on Anaerostipes sp. strain: fecal isolate for biotransformation. The drug concentrations were measured before and after a 12-h incubation by liquid-chromatography-coupled mass spectrometry (LC–MS)
# [5] = The drug is tested on Clostridium symbiosum strain: ATCC14940 for biotransformation. The drug concentrations were measured before and after a 12-h incubation by liquid-chromatography-coupled mass spectrometry (LC–MS); settings: 2 µM
# [6] = The drug is tested on Subdoligranulum variabile strain: DSM15176 for biotransformation. The drug concentrations were measured before and after a 12-h incubation by liquid-chromatography-coupled mass spectrometry (LC–MS); settings: 2 µM
# [7] = The drug is tested on Bacteroides fragilis strain: HMW615 for biotransformation. The drug concentrations were measured before and after a 12-h incubation by liquid-chromatography-coupled mass spectrometry (LC–MS); settings: 2 µM
# [8] = bacteroides fragilis, 12 h, 2 µM
# Description: The drug is tested on Bacteroides fragilis strain: DS-208 for biotransformation. The drug concentrations were measured before and after a 12-h incubation by liquid-chromatography-coupled mass spectrometry (LC–MS)
# [9] = The drug is tested on Enterobacter cancerogenus strain: ATCC35316 for biotransformation. The drug concentrations were measured before and after a 12-h incubation by liquid-chromatography-coupled mass spectrometry (LC–MS); settings: 2 µM
# [10] = The drug is tested on Bacteroides fragilis strain: HMW610 for biotransformation. The drug concentrations were measured before and after a 12-h incubation by liquid-chromatography-coupled mass spectrometry (LC–MS); settings: 2 µM
# [11] = The drug is tested on Blautia luti strain: DSM14534 for biotransformation. The drug concentrations were measured before and after a 12-h incubation by liquid-chromatography-coupled mass spectrometry (LC–MS); format: ADME; parameters: dose 2 uM, timepoint 0 vs 12 hours; settings: 2 µM
# [12] = bacteroides intestinalis, 12 h, 2 µM
# Description: The drug is tested on Bacteroides intestinalis strain: DSM17393 for biotransformation. The drug concentrations were measured before and after a 12-h incubation by liquid-chromatography-coupled mass spectrometry (LC–MS)
# [13] = The drug is tested on Bacteroides uniformis strain: ATCC8492 for biotransformation. The drug concentrations were measured before and after a 12-h incubation by liquid-chromatography-coupled mass spectrometry (LC–MS); settings: 2 µM
# [14] = The drug is tested on Dorea formicigenerans strain: ATCC27755 for biotransformation. The drug concentrations were measured before and after a 12-h incubation by liquid-chromatography-coupled mass spectrometry (LC–MS); settings: 2 µM
# [15] = The drug is tested on Odoribacter splanchnicus strain: fecal isolate for biotransformation. The drug concentrations were measured before and after a 12-h incubation by liquid-chromatography-coupled mass spectrometry (LC–MS); settings: 2 µM
# [16] = The drug is tested on Bacteroides vulgatus strain: ATCC8482 for biotransformation. The drug concentrations were measured before and after a 12-h incubation by liquid-chromatography-coupled mass spectrometry (LC–MS); settings: phocaeicola vulgatus, 2 µM
# [17] = The drug is tested on Bacteroides caccae strain: ATCC43185 for biotransformation. The drug concentrations were measured before and after a 12-h incubation by liquid-chromatography-coupled mass spectrometry (LC–MS); settings: 2 µM
# [18] = The drug is tested on Coprococcus comes strain: ATCC27758 for biotransformation. The drug concentrations were measured before and after a 12-h incubation by liquid-chromatography-coupled mass spectrometry (LC–MS); format: ADME; parameters: dose 2 uM, timepoint 0 vs 12 hours; settings: 2 µM
# [19] = akkermansia muciniphila, 12 h, 2 µM
# Description: The drug is tested on Akkermansia muciniphila strain: ATCC BAA-835 for biotransformation. The drug concentrations were measured before and after a 12-h incubation by liquid-chromatography-coupled mass spectrometry (LC–MS)
# [20] = The drug is tested on Clostridium asparagiforme strain: DSM15981 for biotransformation. The drug concentrations were measured before and after a 12-h incubation by liquid-chromatography-coupled mass spectrometry (LC–MS); format: ADME; parameters: dose 2 uM, timepoint 0 vs 12 hours; settings: enterocloster asparagiformis, 2 µM
smiles,measurement,setting,value
CC(CCc1ccccc1)NCC(O)c1ccc(O)c(C(N)=O)c1 (stereo unspecified) [LABETALOL],Bacterial Biotransformation,[1],Compound NOT metabolized
same,Bacterial Biotransformation,[2],Compound NOT metabolized
same,Bacterial Biotransformation,[3],Compound NOT metabolized
same,Bacterial Biotransformation,[4],Compound NOT metabolized
same,Bacterial Biotransformation,[5],Compound NOT metabolized
same,Bacterial Biotransformation,[6],Compound NOT metabolized
same,Bacterial Biotransformation,[7],Compound NOT metabolized
same,Bacterial Biotransformation,[8],Compound NOT metabolized
same,Bacterial Biotransformation,[9],Compound NOT metabolized
same,Bacterial Biotransformation,[10],Compound NOT metabolized
same,Bacterial Biotransformation,[11],Compound NOT metabolized
same,Bacterial Biotransformation,[12],Compound NOT metabolized
same,Bacterial Biotransformation,[13],Compound NOT metabolized
same,Bacterial Biotransformation,[14],Compound NOT metabolized
same,Bacterial Biotransformation,[15],Compound NOT metabolized
same,Bacterial Biotransformation,[16],Compound NOT metabolized
same,Bacterial Biotransformation,[17],Compound NOT metabolized
same,Bacterial Biotransformation,[18],Compound NOT metabolized
same,Bacterial Biotransformation,[19],Compound NOT metabolized
O=C(Nc1ccccc1)OCC(CN1CCCCC1)OC(=O)Nc1ccccc1 (stereo unspecified) [DIPERODON],Bacterial Biotransformation,[2],Compound NOT metabolized
same,Bacterial Biotransformation,[3],Compound NOT metabolized
same,Bacterial Biotransformation,[4],Compound NOT metabolized
same,Bacterial Biotransformation,[5],Compound NOT metabolized
same,Bacterial Biotransformation,[7],Compound NOT metabolized
same,Bacterial Biotransformation,[8],Compound NOT metabolized
same,Bacterial Biotransformation,[10],Compound NOT metabolized
same,Bacterial Biotransformation,[11],Compound NOT metabolized
same,Bacterial Biotransformation,[12],Compound NOT metabolized
same,Bacterial Biotransformation,[13],Compound NOT metabolized
same,Bacterial Biotransformation,[14],Compound NOT metabolized
same,Bacterial Biotransformation,[20],Compound NOT metabolized
same,Bacterial Biotransformation,[16],Compound NOT metabolized
same,Bacterial Biotransformation,[17],Compound NOT metabolized
same,Bacterial Biotransformation,[18],Compound NOT metabolized
same,Bacterial Biotransformation,[19],Compound NOT metabolized
COCCc1ccc(OCC(O)CNC(C)C)cc1.COCCc1ccc(OCC(O)CNC(C)C)cc1.O=C(O)C(O)C(O)C(=O)O (stereo unspecified) [METOPROLOL TARTRATE],Bacterial Biotransformation,[4],Compound NOT metabolized
same,Bacterial Biotransformation,[5],Compound NOT metabolized
same,Bacterial Biotransformation,[7],Compound NOT metabolized
same,Bacterial Biotransformation,[8],Compound NOT metabolized
same,Bacterial Biotransformation,[9],Compound NOT metabolized
same,Bacterial Biotransformation,[10],Compound NOT metabolized
same,Bacterial Biotransformation,[11],Compound NOT metabolized
same,Bacterial Biotransformation,[12],Compound NOT metabolized
same,Bacterial Biotransformation,[13],Compound NOT metabolized
same,Bacterial Biotransformation,[14],Compound NOT metabolized
same,Bacterial Biotransformation,[20],Compound NOT metabolized
same,Bacterial Biotransformation,[15],Compound NOT metabolized
same,Bacterial Biotransformation,[16],Compound NOT metabolized
same,Bacterial Biotransformation,[17],Compound NOT metabolized
same,Bacterial Biotransformation,[18],Compound NOT metabolized
CC1Cc2ccccc2N1NC(=O)c1ccc(Cl)c(S(N)(=O)=O)c1 (stereo unspecified) [INDAPAMIDE],Bacterial Biotransformation,[2],Compound NOT metabolized
same,Bacterial Biotransformation,[3],Compound NOT metabolized
same,Bacterial Biotransformation,[4],Compound NOT metabolized
same,Bacterial Biotransformation,[7],Compound NOT metabolized
same,Bacterial Biotransformation,[8],Compound NOT metabolized
same,Bacterial Biotransformation,[11],Compound NOT metabolized
same,Bacterial Biotransformation,[12],Compound NOT metabolized
same,Bacterial Biotransformation,[13],Compound NOT metabolized
same,Bacterial Biotransformation,[14],Compound NOT metabolized
same,Bacterial Biotransformation,[20],Compound NOT metabolized
same,Bacterial Biotransformation,[15],Compound NOT metabolized
same,Bacterial Biotransformation,[16],Compound NOT metabolized
same,Bacterial Biotransformation,[17],Compound NOT metabolized
same,Bacterial Biotransformation,[18],Compound NOT metabolized
same,Bacterial Biotransformation,[19],Compound NOT metabolized
N#Cc1ccc(C(c2ccc(C#N)cc2)n2cncn2)cc1 [LETROZOLE],Bacterial Biotransformation,[1],Compound NOT metabolized
same,Bacterial Biotransformation,[3],Compound NOT metabolized
same,Bacterial Biotransformation,[4],Compound NOT metabolized
same,Bacterial Biotransformation,[5],Compound NOT metabolized
same,Bacterial Biotransformation,[6],Compound NOT metabolized
same,Bacterial Biotransformation,[7],Compound NOT metabolized
same,Bacterial Biotransformation,[8],Compound NOT metabolized
same,Bacterial Biotransformation,[9],Compound NOT metabolized
same,Bacterial Biotransformation,[10],Compound NOT metabolized
same,Bacterial Biotransformation,[11],Compound NOT metabolized
same,Bacterial Biotransformation,[12],Compound NOT metabolized
same,Bacterial Biotransformation,[13],Compound NOT metabolized
same,Bacterial Biotransformation,[14],Compound NOT metabolized
same,Bacterial Biotransformation,[15],Compound NOT metabolized
same,Bacterial Biotransformation,[16],Compound NOT metabolized
same,Bacterial Biotransformation,[17],Compound NOT metabolized
same,Bacterial Biotransformation,[18],Compound NOT metabolized
same,Bacterial Biotransformation,[19],Compound NOT metabolized
OCCN(CCO)c1nc(N2CCCCC2)c2nc(N(CCO)CCO)nc(N3CCCCC3)c2n1 [DIPYRIDAMOLE],Bacterial Biotransformation,[2],Compound NOT metabolized
same,Bacterial Biotransformation,[4],Compound NOT metabolized
same,Bacterial Biotransformation,[5],Compound NOT metabolized
same,Bacterial Biotransformation,[7],Compound NOT metabolized
same,Bacterial Biotransformation,[8],Compound metabolized
same,Bacterial Biotransformation,[11],Compound NOT metabolized
same,Bacterial Biotransformation,[12],Compound NOT metabolized
same,Bacterial Biotransformation,[14],Compound NOT metabolized
same,Bacterial Biotransformation,[20],Compound NOT metabolized
same,Bacterial Biotransformation,[16],Compound metabolized
same,Bacterial Biotransformation,[17],Compound NOT metabolized
same,Bacterial Biotransformation,[18],Compound NOT metabolized
same,Bacterial Biotransformation,[19],Compound NOT metabolized
Nc1nc(N)nc(-c2cc(Cl)ccc2Cl)n1.O=C(O)/C=C\C(=O)O [IRSOGLADINE MALEATE],Bacterial Biotransformation,[1],Compound NOT metabolized
same,Bacterial Biotransformation,[2],Compound NOT metabolized
same,Bacterial Biotransformation,[3],Compound NOT metabolized
same,Bacterial Biotransformation,[4],Compound NOT metabolized
same,Bacterial Biotransformation,[5],Compound NOT metabolized
same,Bacterial Biotransformation,[6],Compound NOT metabolized
same,Bacterial Biotransformation,[7],Compound NOT metabolized
same,Bacterial Biotransformation,[8],Compound NOT metabolized
same,Bacterial Biotransformation,[9],Compound NOT metabolized
same,Bacterial Biotransformation,[10],Compound NOT metabolized
same,Bacterial Biotransformation,[11],Compound NOT metabolized
same,Bacterial Biotransformation,[12],Compound NOT metabolized
same,Bacterial Biotransformation,[13],Compound NOT metabolized
same,Bacterial Biotransformation,[14],Compound NOT metabolized
same,Bacterial Biotransformation,[15],Compound NOT metabolized
same,Bacterial Biotransformation,[16],Compound NOT metabolized
same,Bacterial Biotransformation,[17],Compound NOT metabolized
same,Bacterial Biotransformation,[18],Compound NOT metabolized
same,Bacterial Biotransformation,[19],Compound NOT metabolized
COc1ccc([C@@H]2Sc3ccccc3N(CCN(C)C)C(=O)[C@@H]2OC(C)=O)cc1 [DILTIAZEM],Bacterial Biotransformation,[1],Compound metabolized
same,Bacterial Biotransformation,[2],Compound NOT metabolized
same,Bacterial Biotransformation,[3],Compound metabolized
same,Bacterial Biotransformation,[4],Compound metabolized
same,Bacterial Biotransformation,[5],Compound metabolized
same,Bacterial Biotransformation,[8],Compound NOT metabolized
same,Bacterial Biotransformation,[10],Compound NOT metabolized
same,Bacterial Biotransformation,[11],Compound NOT metabolized
same,Bacterial Biotransformation,[12],Compound metabolized
same,Bacterial Biotransformation,[13],Compound metabolized
same,Bacterial Biotransformation,[14],Compound metabolized
same,Bacterial Biotransformation,[20],Compound NOT metabolized
same,Bacterial Biotransformation,[15],Compound NOT metabolized
same,Bacterial Biotransformation,[16],Compound metabolized
same,Bacterial Biotransformation,[17],Compound metabolized
same,Bacterial Biotransformation,[18],Compound metabolized
same,Bacterial Biotransformation,[19],Compound metabolized
CNCC[C@H](Oc1cccc2ccccc12)c1cccs1 [DULOXETINE],Bacterial Biotransformation,[2],Compound metabolized
same,Bacterial Biotransformation,[3],Compound metabolized
same,Bacterial Biotransformation,[4],Compound NOT metabolized
same,Bacterial Biotransformation,[5],Compound NOT metabolized
same,Bacterial Biotransformation,[7],Compound NOT metabolized
same,Bacterial Biotransformation,[8],Compound NOT metabolized
same,Bacterial Biotransformation,[9],Compound metabolized
same,Bacterial Biotransformation,[11],Compound NOT metabolized
same,Bacterial Biotransformation,[12],Compound NOT metabolized
same,Bacterial Biotransformation,[13],Compound metabolized
same,Bacterial Biotransformation,[14],Compound NOT metabolized
same,Bacterial Biotransformation,[20],Compound NOT metabolized
same,Bacterial Biotransformation,[17],Compound NOT metabolized
same,Bacterial Biotransformation,[19],Compound metabolized
